# Results reported in patent publication US20180256611A1, “BISPHOSPHONATES FOR INCREASING THE TYPE 2 CHARACTER OF A MODIC CHANGE” (ANTECIP BIOVENTURES II LLC, priority 2017, published 2018).
# Test system: patients with chronic low back pain (LBP) and Modic changes on MRI
# Assay: Double-blinded, randomized, placebo-controlled clinical trial of a single intravenous infusion of 5 mg zoledronic acid
# Type: in vivo, human
# Details: for Intensity of leg pain, mean (SD) original value / Intensity of LBP, mean (SD) original value / Intensity of LBP, mean (SD) change: 10-cm VAS; for Fingers-to-floor, between-group difference, adjusted (ANCOVA) / Fingers-to-floor, between-group difference, unadjusted / Intensity of LBP, between-group difference, adjusted analysis (ANCOVA, baseline value) / Intensity of LBP, between-group difference, unadjusted analysis / Intensity of leg pain, between-group difference, adjusted (ANCOVA) / Intensity of leg pain, between-group difference, unadjusted / Oswestry disability index, between-group difference, adjusted (ANCOVA) / Oswestry disability index, between-group difference, unadjusted / RAND-36 mental component, between-group difference (95% CI), adjusted (ANCOVA) / RAND-36 mental component, between-group difference (95% CI), unadjusted / RAND-36 physical component, between-group difference (95% CI), adjusted (ANCOVA) / RAND-36 physical component, between-group difference (95% CI), unadjusted / Sidebending to left, between-group difference, adjusted (ANCOVA) / Sidebending to left, between-group difference, unadjusted / Sidebending to right, between-group difference, adjusted (ANCOVA) / Sidebending to right, between-group difference, unadjusted / Total RAND-36, between-group difference (95% CI), adjusted (ANCOVA) / Total RAND-36, between-group difference (95% CI), unadjusted: ZA vs placebo
# Protocol: A study was performed to evaluate the efficacy of a single intravenous infusion of 5 mg zoledronic acid in comparison with intravenous placebo infusion among patients with chronic low back pain (LBP) and Modic changes on MRI. This study was a double-blinded, randomized, placebo-controlled clinical trial in patients with low back pain (LBP).
# Patients were excluded from the study if they had renal impairment with reduced creatinine clearance defined as an estimated glomerular filtration rate (eGFR) below 40 ml/min, hypocalcemia, known hypersensitivity to zoledronic acid or other bisphosphonates or ingredients of the infusion product, the presence of red flags, nerve root entrapment or willingness for early retirement. Premenopausal women of childbearing potential were also excluded. Blood samples were taken prior to the infusion to assess the serum concentration of calcium and creatinine. The clinical examination included medical history and clinical assessment of lumbar flexibility, tendon signs, and motor and sensory testing.
# After confirmation of eligibility patients were randomized to receive a single intravenous infusion of 5 mg zoledronic acid (n=20) or 100 ml saline as placebo (n=20) over a 15-minute period. Information on use of the concomitant medication and hospital admissions were recorded. Blood samples were taken for the assessment of safety, inflammatory mediators and markers of bone turnover at baseline, at one month and at one year.
# Clinical assessments were performed at 14 days before enrollment (screening visit), and at follow-up visits at one month and one year after the infusion. The primary outcome was the change in the intensity of LBP on VAS. Secondary outcomes included leg pain intensity, ODI, health-related quality of life assessed with RAND-36, patient-reported sick leaves and lumbar flexibility. These outcome measures were assessed at baseline and at each follow-up. Lumbar flexibility was evaluated using the fingers-to-floor and trunk side bending measures (in cm). The percentage of patients undergoing a 20% relative improvement, the proportion of patients reaching a VAS score of 40 mm or less using 100 mm scale in the primary outcome, and patient acceptable symptom state (PASS) were also assessed. Pain medication use was inquired about during the follow-up visits.
compound,measurement,setting,value
"O=P(O)(O)C(O)(Cn1ccnc1)P(=O)(O)O [ZA, zoledronic acid]","Fingers-to-floor, mean (SD) original value",1 mo.,17 (17) cm
same,"Oswestry disability index, mean (SD) original value",1 mo.,24 (10) %
same,"RAND-36 mental component, mean (SD) original value",1 mo.,50 (9)
same,"RAND-36 physical component, mean (SD) original value",1 mo.,52 (9)
same,"Sidebending to left, mean (SD) original value",1 mo.,16.1 (5.3) cm
same,"Sidebending to right, mean (SD) original value",1 mo.,15.7 (5.9) cm
same,"Total RAND-36, mean (SD) original value",1 mo.,51 (8)
same,"Intensity of leg pain, mean (SD) original value",1 mo.,2.0 (2.3)
same,"Intensity of LBP, mean (SD) original value",1 mo. after 5 mg IV,4.3 (2.3)
same,"Intensity of leg pain, mean (SD) original value",12 mos.,2.1 (2.8)
same,"Intensity of LBP, mean (SD) original value",12 mos. after 5 mg IV,3.8 (2.5)
same,"Intensity of leg pain, mean (SD) original value",baseline,3.0 (3.1)
same,"Intensity of LBP, mean (SD) change",baseline to 1 mo.,−2.2 (2.7)
same,"Intensity of LBP, mean (SD) change",baseline to 12 mos.,−2.8 (2.9)
same,"Intensity of LBP, mean (SD) original value","baseline, n=20",6.6 (1.4)
same,"Fingers-to-floor, mean (SD) original value",12 mos.,16 (16) cm
same,"Oswestry disability index, mean (SD) original value",12 mos.,25 (13) %
same,"RAND-36 mental component, mean (SD) original value",12 mos.,51 (9)
same,"RAND-36 physical component, mean (SD) original value",12 mos.,52 (8)
same,"Sidebending to left, mean (SD) original value",12 mos.,16.2 (6.7) cm
same,"Sidebending to right, mean (SD) original value",12 mos.,15.7 (5.6) cm
same,"Total RAND-36, mean (SD) original value",12 mos.,51 (8)
same,"Fingers-to-floor, between-group difference, adjusted (ANCOVA)",1 mo.,3.6 cm
same,"Fingers-to-floor, between-group difference, unadjusted",1 mo.,5.0 cm
same,"Intensity of LBP, between-group difference, adjusted analysis (ANCOVA, baseline value)",1 mo.,1.4
same,"Intensity of LBP, between-group difference, unadjusted analysis",1 mo.,1.3
same,"Intensity of leg pain, between-group difference, adjusted (ANCOVA)",1 mo.,0.8
same,"Intensity of leg pain, between-group difference, unadjusted",1 mo.,0.8
same,"Oswestry disability index, between-group difference, adjusted (ANCOVA)",1 mo.,6.0%
same,"Oswestry disability index, between-group difference, unadjusted",1 mo.,4.3%
same,"RAND-36 mental component, between-group difference (95% CI), adjusted (ANCOVA)",1 mo.,1.6 (−2 to 5)
same,"RAND-36 mental component, between-group difference (95% CI), unadjusted",1 mo.,2.0 (−2 to 6)
same,"RAND-36 physical component, between-group difference (95% CI), adjusted (ANCOVA)",1 mo.,1.3 (−3 to 6)
same,"RAND-36 physical component, between-group difference (95% CI), unadjusted",1 mo.,0.3 (−4 to 5)
same,"Sidebending to left, between-group difference, adjusted (ANCOVA)",1 mo.,−1.7 cm
same,"Sidebending to left, between-group difference, unadjusted",1 mo.,−1.5 cm
same,"Sidebending to right, between-group difference, adjusted (ANCOVA)",1 mo.,−2.0 cm
same,"Sidebending to right, between-group difference, unadjusted",1 mo.,−2.0 cm
same,"Total RAND-36, between-group difference (95% CI), adjusted (ANCOVA)",1 mo.,1.3 (−3 to 5)
same,"Total RAND-36, between-group difference (95% CI), unadjusted",1 mo.,1.2 (−3 to 5)
same,"Fingers-to-floor, between-group difference, adjusted (ANCOVA)",12 mos.,5.3 cm
same,"Fingers-to-floor, between-group difference, unadjusted",12 mos.,7.1 cm
same,"Intensity of LBP, between-group difference, adjusted analysis (ANCOVA, baseline value)",12 mos.,0.7
same,"Intensity of LBP, between-group difference, unadjusted analysis",12 mos.,0.6
same,"Intensity of leg pain, between-group difference, adjusted (ANCOVA)",12 mos.,0.5
same,"Intensity of leg pain, between-group difference, unadjusted",12 mos.,0.6
same,"Oswestry disability index, between-group difference, adjusted (ANCOVA)",12 mos.,5.1%
same,"Oswestry disability index, between-group difference, unadjusted",12 mos.,3.1%
same,"RAND-36 mental component, between-group difference (95% CI), adjusted (ANCOVA)",12 mos.,2.7 (−2 to 7)
same,"RAND-36 mental component, between-group difference (95% CI), unadjusted",12 mos.,3.5 (−2 to 9)
same,"RAND-36 physical component, between-group difference (95% CI), adjusted (ANCOVA)",12 mos.,2.1 (−3 to 7)
same,"RAND-36 physical component, between-group difference (95% CI), unadjusted",12 mos.,0.7 (−5 to 6)
same,"Sidebending to left, between-group difference, adjusted (ANCOVA)",12 mos.,−1.0 cm
same,"Sidebending to left, between-group difference, unadjusted",12 mos.,−0.7 cm
same,"Sidebending to right, between-group difference, adjusted (ANCOVA)",12 mos.,−1.7 cm
same,"Sidebending to right, between-group difference, unadjusted",12 mos.,−1.6 cm
same,"Total RAND-36, between-group difference (95% CI), adjusted (ANCOVA)",12 mos.,2.2 (−2 to 7)
same,"Total RAND-36, between-group difference (95% CI), unadjusted",12 mos.,2.1 (−3 to 7)
same,Patients using NSAIDs (self-reported),"at one year, placebo 60%",20%
same,"Fingers-to-floor, mean (SD) original value",baseline,23 (19) cm
same,"Oswestry disability index, mean (SD) original value",baseline,30 (11) %
same,"RAND-36 mental component, mean (SD) original value",baseline,49 (9)
same,"RAND-36 physical component, mean (SD) original value",baseline,52 (8)
same,"Sidebending to left, mean (SD) original value",baseline,15.0 (5.4) cm
same,"Sidebending to right, mean (SD) original value",baseline,14.1 (4.9) cm
same,"Total RAND-36, mean (SD) original value",baseline,50 (8)
same,"Fingers-to-floor, mean (SD) change",baseline to 1 mo.,−5.1 (20) cm
same,"Intensity of leg pain, mean (SD) change",baseline to 1 mo.,−0.6 (2.4)
same,"Oswestry disability index, mean (SD) change",baseline to 1 mo.,−5.9 (11) %
same,"RAND-36 mental component, mean change",baseline to 1 mo.,1.0
same,"RAND-36 physical component, mean change",baseline to 1 mo.,0.1
same,"Sidebending to left, mean (SD) change",baseline to 1 mo.,1.1 (3.0) cm
same,"Sidebending to right, mean (SD) change",baseline to 1 mo.,1.5 (4.7) cm
same,"Total RAND-36, mean change",baseline to 1 mo.,0.6
same,"Fingers-to-floor, mean (SD) change",baseline to 12 mos.,−6.3 (23) cm
same,"Intensity of leg pain, mean (SD) change",baseline to 12 mos.,−0.9 (3.4)
same,"Oswestry disability index, mean (SD) change",baseline to 12 mos.,−5.0 (15) %
same,"RAND-36 mental component, mean change",baseline to 12 mos.,1.8
same,"RAND-36 physical component, mean change",baseline to 12 mos.,0.3
same,"Sidebending to left, mean (SD) change",baseline to 12 mos.,1.2 (5.3) cm
same,"Sidebending to right, mean (SD) change",baseline to 12 mos.,1.6 (4.8) cm
same,"Total RAND-36, mean change",baseline to 12 mos.,1.0
same,Proportion of patients reaching patient acceptable symptom state (PASS),"one month, placebo 20% (p=0.096)",50%
same,Proportion of patients with at least 20% improvement in intensity of LBP,"one month, placebo 25% (p=0.105)",55%
same,"Pain reduction, VAS change from baseline",patients with Baseline VAS <6,−0.1 cm
same,"Pain reduction, VAS change from baseline",patients with Baseline VAS ≥6 and <7,−2.3 cm
same,"Pain reduction, VAS change from baseline",patients with Baseline VAS ≥7,−3.4 cm
same,Mean reduction in pain from baseline,patients with baseline pain intensity <6,0.1
same,Mean reduction in pain from baseline,patients with baseline pain intensity ≥7,3.4
